Results taken from US20150250785A1, “Tropomyosin-Related Kinase Inhibitors” (PFIZER LIMITED, priority 2012, published 2015).

Target: T1, TRKA (NTRK1) recombinant His-tagged cytoplasmic domain aa 441-796 (Homo sapiens, UniProt P04629)
T1 construct: aa 441-; 4 nM; 40 uM; 35 min; (NTRK1); 796; His; purchased Invitrogen PV3144
Experiment: Isolated TRK enzyme assay (HTRF KinEASE-TK), PV3144 TrkA
Format: biochemical
Conditions: 4 nM enzyme, 40 uM ATP, 35 min, arithmetic mean where more than one reading
Procedure: Isolated TRK Enzyme assays use the HTRF KinEASE-TK kit (Cisbio Cat#62TK0PEJ) with recombinant His-tagged cytoplasmic domains of each TRK receptor sourced from Invitrogen (see table below). This activity-assay measures the phosphorylation of tyrosine residues within a substrate from the HTRF kit which has been validated by Cisbio for a variety of tyrosine kinases including the TRK receptors.
0.5 mM stock solutions of test compounds are prepared and serially diluted in 100% DMSO. A standard curve using the compound of Example 135 disclosed in WO2005/116035 of 150 uM is also prepared on each test plate. High percentage effect (HPE) is defined by 150 uM (using the compound of Example 135 as disclosed in WO2005/116035) and 0% effect (ZPE) is defined by 100% DMSO. Greiner low volume black plates containing 0.2 ul of serially diluted compound, standard and HPE/ZPE are created using the Bravo nanolitre dispenser.
1× enzyme buffer is prepared from 5× Enzymatic Buffer from the Cisbio KinEASE TK kit using MilliQ water. The buffer is then supplemented with 10 mM MgCl and 2 mM DTT (both from Sigma). In the case of TRKB, the buffer is also supplemented with 125 nM Supplement Enzymatic Buffer (SEB) from the Cisbio kit.
2×FAC of enzyme and 2×FAC ATP diluted in 1× complete enzyme buffer is incubated at room temperature for 20 minutes to preactivate the enzyme. Following this preactivation step, 5 ul/well of enzyme+ATP mix is added using a Multidrop Micro to the assay plate, spotted with 0.2 ul 100% DMSO compound. […]
After the Detection Reagent addition, plates are covered and incubated at room temperature for 60 minutes. HTRF signal is read using an Envision reader, measured as a ratio of emissions at two different wavelengths, 620 nm and 665 nm. […] Test compound data are expressed as percentage inhibition defined by HPE and ZPE values for each plate. […]
Below are TrkA IC50 data generated using the PV3144 TrkA enzyme assay. Where more than one reading was taken, the arithmetic mean is presented.

T1 sequence (P04629 441-796): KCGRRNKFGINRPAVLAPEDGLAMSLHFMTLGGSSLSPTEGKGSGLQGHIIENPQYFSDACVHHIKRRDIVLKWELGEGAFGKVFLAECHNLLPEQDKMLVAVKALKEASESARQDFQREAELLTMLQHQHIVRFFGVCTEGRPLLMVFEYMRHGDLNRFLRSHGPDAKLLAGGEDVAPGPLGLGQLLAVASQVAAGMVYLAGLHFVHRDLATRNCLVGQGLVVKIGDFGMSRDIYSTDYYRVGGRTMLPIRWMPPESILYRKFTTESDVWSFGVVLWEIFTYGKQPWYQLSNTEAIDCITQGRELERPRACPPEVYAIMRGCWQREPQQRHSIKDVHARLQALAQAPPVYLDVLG

IC50 [nM]	SMILES
21	CC(C)n1nc(C(=O)c2ccnc(NC(=O)Cc3coc(C4CC4)n3)c2)c2cnccc21 [Example 1, 2-(2-cyclopropyl-1,3-oxazol-4-yl)-N-{4-[(1-isopropyl-1H-pyrazolo[4,3-c]pyridin-3-yl)carbonyl]pyridin-2-yl}acetamide]
20.4	CC(C)n1nc(C(=O)c2ccnc(NC(=O)Cc3ccc(C#N)cc3)c2)c2cnccc21 [Example 2, 2-(4-cyanophenyl)-N-{4-[(1-isopropyl-1H-pyrazolo[4,3-c]pyridin-3-yl)carbonyl]pyridin-2-yl}acetamide]
16.6	CC(C)c1nc(C(=O)c2ccnc(NC(=O)Cn3ccc(C(F)(F)F)n3)c2)c2cnccn12 [Example 3, N-{4-[(3-isopropylimidazo[1,5-a]pyrazin-1-yl)carbonyl]pyridin-2-yl}-2-[3-(trifluoromethyl)-1H-pyrazol-1-yl]acetamide]
